# Laboratory results published in US20100279941A1, “CD36 MODULATION AND USES THEREOF” (priority 2009, published 2010).
# What was measured:
# C57BL/6 mice [1] = test: Blood lactate after transient ischemia; assay type: in vivo; details: 6-hour reperfusion; 2 weeks 289 nmol/kg; P<0.05 compared to vehicle
# Method: (§1) C57BU6 mice were bred in house. Male mice, aged 23 (±1) weeks, were used for experiments. They were fed standard chow (#5075, Charles Rivers, Saint-Constant, Québec, Canada) and water ad libitum, and housed singly during treatment periods (2 weeks). Daily pharmacological treatments with 300 μg/kg (289 nmol/kg) of EP 80317 or 289 nmol/kg of CP-3(IV), 289 nmol/kg of CP-AP-4 or vehicle (0.9% NaCl) were done by subcutaneous (s.c.) injections.
# (§2) Experimental model of IHD: Transient left coronary artery ligation in vivo. Mice were subjected to a transient LCAL surgery as described before, with minor modifications [Tarnayski et al., 2004]. Mice were injected i.p. with buprenorphine (0.05 mg/kg) and placed in an induction chamber with inhalation anesthesia comprised of 3% isoflurane mixed with 100% oxygen. Mice were intubated with a blunt ended 20-gauge catheter into the trachea via the mouth and mechanically ventilated at a tidal volume of 7 ml/kg at 130 respirations/min with a MiniVent™ mouse ventilator (model 845, Harvard Apparatus, Saint-Laurent, QC, Canada). Anesthesia was maintained with 1.5-2% isoflurane and the animals were kept warm using electrical heating pads during the surgical procedure. The chest was opened by a horizontal incision through the skin and muscle layers at the third intercostal space exposing the left side of the heart. […] Visual blanching distal to the coronary occlusion confirmed myocardial ischaemia. Lidocaine (6 mg/kg) was administered i.p. just following occlusion and prior to reperfusion. After 30 minutes, the PE10 tubing was removed allowing reperfusion. The lungs were reinflated and the chest wound closed layer by layer before extubation. At 6 hours following reperfusion, mice were anesthetized (isoflurane), a blood sample withdrawn, and the heart arrested in diastole by an intravenous injection of 1 M KCl (0.5 mL). Hearts were immediately frozen at −80° C. unless otherwise stated.
# Blood lactate. Blood lactate was determined using the Lactate Pro Analyser (FaCT Canada Consulting Ltd, Quesnel, BC, Canada), according to the manufacturer's instructions.
# Akt = test: Western blot of left ventricle: phosphorylated Akt to total Akt; assay type: in vivo, mice
# Method: as §2, with “At 6 hours following reperfusion, mice were anesthetized (isoflurane), a blood sample withdrawn, and the heart arrested in diastole by an intravenous injection of 1 M KCl (0.5 mL).” left out
# Western blot analysis. Total ventricular protein lysates were prepared as described previously [Bodart et al., 2002]. Left ventricles were homogenized in PBS containing a protease inhibitor cocktail (Roche Applied Science, Indianapolis, Ind., USA) and 1 mM sodium orthovanadate. Homogenates were incubated for 10 min on ice with an equal volume of lysis buffer (NaCl 300 mM, Tris-HCl 100 mM, 2% Triton X-100, 0.2% SDS, 50 mM NaF, 4 mM EDTA, 1 mM sodium orthovanadate and protein inhibitors, pH=7.5), and centrifuged at 14,000 g for 30 minutes at 4° C. The protein concentration of the su pernatant was determined by the bicinchoninic acid (BCA) protein assay (Pierce Biotechnology, Rockford, Ill., USA). Equal amounts (50 or 100 μg) of protein extracts were separated on 10% SDS-polyacrylamide gels and transferred electrophoretically to polyvinylidene difluoride (PVDF) membranes (Bio-Rad Laboratories, Hercules, Calif., USA) for immunoblotting. […] Antibody binding was detected by enhanced chemiluminescence using an alpha Imager™ (Alpha Innotech Corporation, San Leandro, Calif., USA). Quantification of the digital images obtained was performed using ImageQuant™ 5.2 software (Molecular Dynamics, Sunnyvale, Calif., USA).
# C57BL/6 mice [2] = test: Cardiac troponin I (cTnI) in plasma, ELISA; assay type: in vivo; details: 48 hours post-ischemia; 2 weeks 289 nmol/kg; compared to vehicle
# Method: as §1
# as §2, with “At 6 hours following reperfusion, mice were anesthetized (isoflurane), a blood sample withdrawn, and the heart arrested in diastole by an intravenous injection of 1 M KCl (0.5 mL).” left out
# Cardiac troponin I (cTnI) concentrations in plasma. cTnI plasma levels were assayed using the High Sensitivity Mouse Cardiac Troponin-I ELISA Kit (Life Diagnostics, Inc., West Chester, Pa., Cat. No. 2010-1-HSP), according to the manufacturer's instructions.
substance,measurement,setting,value
HAIC-2MeDTrp-DLys-Trp-DPhe-Lys-NH2 [EP 80317],reduction of lactate concentration in blood,C57BL/6 mice [1],34%
same,increase of P-Akt to total Akt band density ratio,"Akt; 6 hours reperfusion, CD36^+/+ mice, p<0.01",57%
same,effect on P-Akt/Akt ratio,"Akt; 6 hours reperfusion, CD36^−/− mice, in words",no effect
same,increase of P-Akt/Akt density ratio,"Akt; 48 hours reperfusion, CD36^+/+ mice, p<0.01",89%
same,effect on Akt phosphoprotein signal,"Akt; 48 hours reperfusion, genotype not printed in the sentence (FIG. 7D), in words",no significant effect
same,reduction of cardiac troponin I (cTnI) levels in plasma,C57BL/6 mice [2],60%
